The target of assay [1] is T1, Sphingolipid delta(4)-desaturase DES1 (Rattus norvegicus, UniProt Q5XIF5).
T1 sequence (Q5XIF5 whole entry): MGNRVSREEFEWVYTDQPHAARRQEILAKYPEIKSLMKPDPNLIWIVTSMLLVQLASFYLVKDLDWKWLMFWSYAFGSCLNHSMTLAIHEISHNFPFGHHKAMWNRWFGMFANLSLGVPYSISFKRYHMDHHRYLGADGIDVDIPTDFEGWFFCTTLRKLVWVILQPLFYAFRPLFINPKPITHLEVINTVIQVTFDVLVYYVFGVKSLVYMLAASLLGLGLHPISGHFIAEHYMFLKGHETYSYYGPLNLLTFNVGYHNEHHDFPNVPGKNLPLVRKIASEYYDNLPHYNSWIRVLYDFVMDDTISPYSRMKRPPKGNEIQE
Kind of assay: Inhibition of rat liver microsome DES1 assessed as inhibition constant incubated for 20 mins in presence of NADH by liquid scintillation counter method. Type of assay: microsomes.

For assay [2], the target named is T2, Sphingolipid delta(4)-desaturase DES1 (Homo sapiens, UniProt O15121).
T2 sequence (O15121 whole entry): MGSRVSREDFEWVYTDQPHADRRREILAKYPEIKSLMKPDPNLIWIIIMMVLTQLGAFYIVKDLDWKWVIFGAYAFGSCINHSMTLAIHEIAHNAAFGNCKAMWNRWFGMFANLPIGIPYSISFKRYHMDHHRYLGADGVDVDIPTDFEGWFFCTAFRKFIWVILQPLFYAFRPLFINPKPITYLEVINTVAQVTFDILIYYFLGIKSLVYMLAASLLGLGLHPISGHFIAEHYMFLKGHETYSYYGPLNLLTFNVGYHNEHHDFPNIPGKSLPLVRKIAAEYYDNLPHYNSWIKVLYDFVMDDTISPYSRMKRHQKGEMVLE
Kind of assay: Inhibition of DES1 (unknown origin).

The target of assay [3] is T1, Sphingolipid delta(4)-desaturase DES1. Kind of assay: Inhibition of rat liver microsome DES1 incubated for 20 min in presence of NADH by liquid scintillation counter method. Type of assay: microsomes.
The target in assay [4] is T3, Sphingomyelin phosphodiesterase 2 (Rattus norvegicus, UniProt Q9ET64).
T3 sequence (Q9ET64 whole entry): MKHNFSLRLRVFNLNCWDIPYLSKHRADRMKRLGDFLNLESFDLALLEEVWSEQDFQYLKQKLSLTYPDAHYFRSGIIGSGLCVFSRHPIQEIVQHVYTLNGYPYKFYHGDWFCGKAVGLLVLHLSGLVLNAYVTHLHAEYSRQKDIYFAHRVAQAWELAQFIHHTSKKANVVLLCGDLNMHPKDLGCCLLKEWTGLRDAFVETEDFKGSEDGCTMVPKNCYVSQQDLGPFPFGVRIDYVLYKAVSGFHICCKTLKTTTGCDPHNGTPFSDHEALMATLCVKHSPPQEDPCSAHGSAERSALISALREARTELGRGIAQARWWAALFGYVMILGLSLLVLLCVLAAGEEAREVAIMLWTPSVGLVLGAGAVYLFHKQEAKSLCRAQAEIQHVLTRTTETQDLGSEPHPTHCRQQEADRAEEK
Kind of assay: Inhibition of rat brain microsomes nSMase assessed as inhibition constant. On the set-up: species or system Microsome.

In assay [5] the test system is Neutral sphingomyelinase (Sus scrofa). Description: Inhibition of pig liver plasma membranes nSMase at 100 uM measured after 15 mins at 100 uM relative to control. Conditions: Plasma membrane.
In assay [6] the target is T2, Sphingolipid delta(4)-desaturase DES1. Kind of assay: Noncompetitive inhibition of DES1 in human HGC-27 cell lysates assessed as inhibition constant. Type of assay: subcellular.
A short description of assay [7]: Inhibition of rat brain aSMase using HMU-PC as substrate incubated for 3 hrs by fluorescence based analysis. The class given is tissue-based.
Assay [8] can be described thus: Competitive inhibition of rat brain aSMase assessed as inhibition constant. Type of assay: tissue-based.
Assay [9] addresses T2, Sphingolipid delta(4)-desaturase DES1. Description: Inhibition of DES1 in human HGC-27 cell lysates. The class given is subcellular.
The target is the same in assay [10]. Description: Binding affinity to DES1 in human HGC-27 cell lysates assessed as inhibition constant. Type of assay: subcellular.
Assay [11] deals with T1, Sphingolipid delta(4)-desaturase DES1. Kind of assay: Inhibition of rat liver microsome DES1 using N-octanoylsphinganine as substrate incubated for 30 mins. Type of assay: microsomes. A general note: Liver microsomes are vesicles of endoplasmic reticulum, rich in cytochrome P450 enzymes.
The target of another assay is Acetylcholinesterase (Homo sapiens, UniProt P22303). Kind of assay: Inhibition of AChe (unknown origin).
Acetylcholinesterase, sequence (P22303 whole entry): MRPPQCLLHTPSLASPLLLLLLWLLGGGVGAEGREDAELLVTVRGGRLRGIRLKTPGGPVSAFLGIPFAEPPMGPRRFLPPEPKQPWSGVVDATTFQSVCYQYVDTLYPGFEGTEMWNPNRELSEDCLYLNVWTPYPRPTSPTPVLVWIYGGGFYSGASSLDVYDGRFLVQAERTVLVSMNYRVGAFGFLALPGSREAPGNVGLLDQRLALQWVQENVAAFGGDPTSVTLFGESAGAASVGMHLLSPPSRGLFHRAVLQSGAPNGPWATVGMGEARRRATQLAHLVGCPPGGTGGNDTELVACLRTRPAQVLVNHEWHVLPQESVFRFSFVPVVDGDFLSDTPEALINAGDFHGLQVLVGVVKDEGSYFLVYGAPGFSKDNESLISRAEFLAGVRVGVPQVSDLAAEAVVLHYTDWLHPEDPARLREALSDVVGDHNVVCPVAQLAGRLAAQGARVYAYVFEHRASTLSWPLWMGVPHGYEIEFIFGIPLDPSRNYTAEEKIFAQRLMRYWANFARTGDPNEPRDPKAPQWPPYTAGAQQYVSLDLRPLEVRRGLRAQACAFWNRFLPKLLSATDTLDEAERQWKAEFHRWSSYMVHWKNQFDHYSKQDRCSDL
Assay [12] has as its target T3, Sphingomyelin phosphodiesterase 2. Description: Inhibition of rat brain nSMase. Type of assay: tissue-based.
Assay [13] has as its target Sphingomyelinase C (Bacillus cereus) (UniProt P11889). Kind of assay: Inhibition of Bacillus cereus SMaseC at 100 uM relative to control.
The nature of assay [14]: Non-competitive inhibition of bovine brain microsomes nSMase assessed as inhibition constant. On the set-up: species or system Bos taurus, Microsome.
Assay [15] is described as follows: Inhibition of bovine brain microsomes nSMase. On the set-up: species or system Bos taurus, Microsome.
In assay [16] the target is Sphingomyelin phosphodiesterase (Homo sapiens) (UniProt P17405). Kind of assay: Inhibition of recombinant human aSMase at 5 uM relative to control.
Sphingomyelin phosphodiesterase (Homo sapiens), sequence (P17405 whole entry): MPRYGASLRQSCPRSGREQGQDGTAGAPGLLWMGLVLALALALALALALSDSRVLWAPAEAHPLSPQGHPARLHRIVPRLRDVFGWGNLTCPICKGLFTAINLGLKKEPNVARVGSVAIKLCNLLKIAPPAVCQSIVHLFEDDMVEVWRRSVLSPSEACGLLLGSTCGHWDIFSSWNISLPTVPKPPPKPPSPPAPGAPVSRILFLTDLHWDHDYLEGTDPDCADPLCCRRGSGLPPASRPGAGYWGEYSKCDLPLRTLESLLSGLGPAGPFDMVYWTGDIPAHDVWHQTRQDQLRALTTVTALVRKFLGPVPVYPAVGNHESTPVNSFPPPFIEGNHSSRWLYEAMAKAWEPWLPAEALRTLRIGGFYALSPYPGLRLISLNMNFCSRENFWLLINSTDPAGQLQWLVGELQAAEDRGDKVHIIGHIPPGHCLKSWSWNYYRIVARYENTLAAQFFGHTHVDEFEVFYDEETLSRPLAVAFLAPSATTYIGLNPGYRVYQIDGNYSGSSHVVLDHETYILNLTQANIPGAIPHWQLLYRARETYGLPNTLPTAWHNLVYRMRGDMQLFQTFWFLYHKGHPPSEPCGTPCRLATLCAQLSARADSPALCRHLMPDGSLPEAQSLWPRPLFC
For assay [17], the target named is Sphingomyelin phosphodiesterase (Homo sapiens, UniProt P17405). Kind of assay: Inhibition of recombinant human aSMase assessed as inhibition constant.
Sphingomyelin phosphodiesterase, sequence (P17405 whole entry): as above
Assay [18] addresses T1, Sphingolipid delta(4)-desaturase DES1. Description: Inhibition of rat liver microsome DES1 incubated for 1 hr fluorescence based analysis. Type of assay: microsomes.
The nature of assay [19]: Inhibition of rat liver microsome Sphingosine N-acyltransferase assessed as inhibition of [3H]sphingosine to [3H]ceramide conversion incubated for 2 hrs. Type of assay: microsomes.
The next assay has as its target Ceramide synthase 4 (Homo sapiens, UniProt Q9HA82). Kind of assay: Inhibition of human CerS4.
In another assay the target is Ceramide synthase 6 (Homo sapiens, UniProt Q6ZMG9). Description: Inhibition of human CerS6.
Ceramide synthase 6, sequence (Q6ZMG9 whole entry): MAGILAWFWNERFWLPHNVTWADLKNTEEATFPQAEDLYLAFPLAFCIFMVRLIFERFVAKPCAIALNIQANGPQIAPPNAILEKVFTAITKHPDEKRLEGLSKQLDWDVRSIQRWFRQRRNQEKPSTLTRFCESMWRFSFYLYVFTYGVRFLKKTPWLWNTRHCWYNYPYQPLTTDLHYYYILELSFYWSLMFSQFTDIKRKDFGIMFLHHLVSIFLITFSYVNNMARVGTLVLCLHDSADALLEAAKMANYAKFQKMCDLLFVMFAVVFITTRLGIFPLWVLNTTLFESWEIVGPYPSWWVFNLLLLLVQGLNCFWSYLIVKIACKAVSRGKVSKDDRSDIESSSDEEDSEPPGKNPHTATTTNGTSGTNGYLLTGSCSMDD
A further assay concerns the target Ceramide synthase 5 (Mus musculus, UniProt Q9D6K9). Description: Inhibition of mouse CerS5.
Assay [20] concerns the target T4, Ceramide synthase 2 (Homo sapiens, UniProt Q96G23).
T4 sequence (Q96G23 whole entry): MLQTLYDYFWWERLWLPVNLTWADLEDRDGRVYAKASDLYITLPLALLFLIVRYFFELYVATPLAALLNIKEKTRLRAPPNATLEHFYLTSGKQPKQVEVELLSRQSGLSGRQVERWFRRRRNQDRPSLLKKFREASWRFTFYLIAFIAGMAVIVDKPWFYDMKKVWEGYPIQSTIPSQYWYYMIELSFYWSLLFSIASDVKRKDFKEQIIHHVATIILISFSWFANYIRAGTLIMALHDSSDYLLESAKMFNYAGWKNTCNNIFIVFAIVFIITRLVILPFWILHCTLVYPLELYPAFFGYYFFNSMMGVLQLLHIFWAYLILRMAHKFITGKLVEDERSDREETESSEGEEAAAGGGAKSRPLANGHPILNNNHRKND
Description: Inhibition of human CerS2.

The target in assay [21] is Ceramide synthase 2 (Mus musculus, UniProt Q924Z4). Kind of assay: Inhibition of mouse CerS2.
Ceramide synthase 2 (Mus musculus, UniProt Q924Z4), sequence (Q924Z4 whole entry): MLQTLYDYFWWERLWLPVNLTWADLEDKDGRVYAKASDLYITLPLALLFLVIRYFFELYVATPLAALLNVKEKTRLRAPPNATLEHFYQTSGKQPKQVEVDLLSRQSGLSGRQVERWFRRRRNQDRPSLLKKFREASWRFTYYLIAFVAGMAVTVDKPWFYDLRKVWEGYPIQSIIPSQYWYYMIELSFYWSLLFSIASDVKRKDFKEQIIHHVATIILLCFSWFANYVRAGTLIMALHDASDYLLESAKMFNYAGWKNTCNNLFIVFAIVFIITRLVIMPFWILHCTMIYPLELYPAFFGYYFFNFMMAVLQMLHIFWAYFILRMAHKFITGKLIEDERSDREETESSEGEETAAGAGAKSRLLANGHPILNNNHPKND
Assay [22] is described as follows: Inhibition of Bacillus cereus nSMase.
In assay [23] the target is Sphingomyelin phosphodiesterase 3 (Homo sapiens) (UniProt Q9NY59). Kind of assay: Inhibition of nSMase2 (unknown origin) at 50 uM relative to control.
Sphingomyelin phosphodiesterase 3 (Homo sapiens), sequence (Q9NY59 whole entry): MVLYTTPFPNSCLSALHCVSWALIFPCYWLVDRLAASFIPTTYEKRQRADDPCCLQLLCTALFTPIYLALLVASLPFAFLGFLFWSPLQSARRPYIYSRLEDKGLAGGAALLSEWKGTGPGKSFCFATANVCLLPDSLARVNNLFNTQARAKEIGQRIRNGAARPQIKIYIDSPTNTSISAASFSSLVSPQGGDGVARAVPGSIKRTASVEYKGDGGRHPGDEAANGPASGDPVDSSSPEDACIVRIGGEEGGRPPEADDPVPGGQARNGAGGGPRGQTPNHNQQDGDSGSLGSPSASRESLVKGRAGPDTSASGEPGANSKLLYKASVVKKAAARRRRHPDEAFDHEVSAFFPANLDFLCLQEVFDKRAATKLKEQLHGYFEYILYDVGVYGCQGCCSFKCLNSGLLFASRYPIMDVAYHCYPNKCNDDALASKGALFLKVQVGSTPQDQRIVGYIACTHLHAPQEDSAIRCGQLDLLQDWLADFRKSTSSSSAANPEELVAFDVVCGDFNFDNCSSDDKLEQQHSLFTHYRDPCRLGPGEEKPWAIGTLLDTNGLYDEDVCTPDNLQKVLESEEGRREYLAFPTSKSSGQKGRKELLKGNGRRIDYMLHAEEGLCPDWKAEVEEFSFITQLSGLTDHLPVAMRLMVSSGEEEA
Assay [24] is described as follows: Inhibition of rat plasma secretory SMase. Type of assay: cell-free.
A short description of assay [25]: Mixed type inhibition of human recombinant glucocerebrosidase at pH 4.3.
A short description of assay [26]: Mixed type inhibition of human recombinant glucocerebrosidase at pH 6.7.
Assay [27] is described as follows: Mixed type inhibition of human recombinant glucocerebrosidase at pH 5.6.
Assay [28] concerns the target Sphingomyelin phosphodiesterase 2 (Mus musculus) (UniProt O70572). Description: Inhibition of nSMase in mouse Splenocyte at 1 uM relative to control. Type of assay: cell-based.
Assay [29] concerns the target T4, Ceramide synthase 2. Kind of assay: Competitive inhibition of CerS2 in HPAC cells using DHSph as substrate by LC/MS/MS analysis. Type of assay: cell-based.
The target of assay [30] is T4, Ceramide synthase 2. Description: Inhibition of CerS2 in HPAC cells using DHSph as substrate. The class given is cell-based.

Ceramide synthase 5, sequence (Q9D6K9 whole entry): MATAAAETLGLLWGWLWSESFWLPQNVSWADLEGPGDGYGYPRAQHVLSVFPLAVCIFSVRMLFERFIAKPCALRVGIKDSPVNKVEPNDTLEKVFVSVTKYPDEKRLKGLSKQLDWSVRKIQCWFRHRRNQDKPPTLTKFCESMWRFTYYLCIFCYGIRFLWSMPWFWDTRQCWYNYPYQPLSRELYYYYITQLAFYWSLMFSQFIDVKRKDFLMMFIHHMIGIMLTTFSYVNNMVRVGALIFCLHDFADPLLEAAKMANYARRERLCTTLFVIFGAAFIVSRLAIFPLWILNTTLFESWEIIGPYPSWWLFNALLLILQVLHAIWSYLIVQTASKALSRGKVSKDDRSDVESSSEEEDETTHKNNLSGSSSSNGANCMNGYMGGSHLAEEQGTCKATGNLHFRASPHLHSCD
Ceramide synthase 4, sequence (Q9HA82 whole entry): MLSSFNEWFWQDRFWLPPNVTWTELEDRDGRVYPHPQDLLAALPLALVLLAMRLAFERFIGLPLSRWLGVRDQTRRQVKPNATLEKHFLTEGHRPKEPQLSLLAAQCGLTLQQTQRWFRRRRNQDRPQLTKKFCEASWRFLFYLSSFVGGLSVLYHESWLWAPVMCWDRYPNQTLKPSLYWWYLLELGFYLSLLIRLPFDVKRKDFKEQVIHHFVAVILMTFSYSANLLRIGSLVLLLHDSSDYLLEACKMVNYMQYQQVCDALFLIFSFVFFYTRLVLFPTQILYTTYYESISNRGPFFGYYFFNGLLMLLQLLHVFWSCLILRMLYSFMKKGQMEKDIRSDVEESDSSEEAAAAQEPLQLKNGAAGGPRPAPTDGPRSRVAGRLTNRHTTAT
Sphingomyelin phosphodiesterase 2 (Mus musculus), sequence (O70572 whole entry): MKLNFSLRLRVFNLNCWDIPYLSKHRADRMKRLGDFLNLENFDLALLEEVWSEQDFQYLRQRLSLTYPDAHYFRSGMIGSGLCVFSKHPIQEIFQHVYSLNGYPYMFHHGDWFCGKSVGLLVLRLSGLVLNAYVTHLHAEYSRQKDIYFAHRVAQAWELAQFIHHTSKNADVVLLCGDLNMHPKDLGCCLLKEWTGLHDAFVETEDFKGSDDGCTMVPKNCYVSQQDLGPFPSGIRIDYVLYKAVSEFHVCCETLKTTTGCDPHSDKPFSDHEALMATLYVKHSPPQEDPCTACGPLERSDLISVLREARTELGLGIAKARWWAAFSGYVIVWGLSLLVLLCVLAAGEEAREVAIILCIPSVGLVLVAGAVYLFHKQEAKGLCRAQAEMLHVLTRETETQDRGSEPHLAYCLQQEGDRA
Sphingomyelinase C (Bacillus cereus), sequence (P11889 whole entry): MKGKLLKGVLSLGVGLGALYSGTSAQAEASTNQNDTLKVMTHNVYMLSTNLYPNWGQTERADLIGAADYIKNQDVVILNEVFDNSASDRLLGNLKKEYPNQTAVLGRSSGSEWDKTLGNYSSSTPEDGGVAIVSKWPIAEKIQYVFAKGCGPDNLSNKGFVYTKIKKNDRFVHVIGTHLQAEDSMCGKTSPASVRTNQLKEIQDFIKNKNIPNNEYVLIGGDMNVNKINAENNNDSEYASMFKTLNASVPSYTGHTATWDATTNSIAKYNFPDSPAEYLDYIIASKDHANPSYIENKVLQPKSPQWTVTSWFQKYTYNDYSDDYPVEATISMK

The term Ki denotes the dissociation constant of the complex between target and ligand, obtained from inhibition or displacement. A word on the IC50: it is the point on the concentration scale where inhibition reaches its midpoint. As for `CC1=C(/C=C/C(C)=C/C=C/C(C)=C/C(=O)Nc2ccc(O)cc2)C(C)(C)CCC1` [FENRETINIDE], the Ki in assay [1] came out at 8.28 µM. The IC50 in assay [2] was found to be 0.1 µM; in [3] it was 2.32 µM.
As for `COc1cc(O)c(C(=O)O)c(-c2cc(O)c(O)cc2C)c1` [ALTENUSIN], the inhibition constant (Ki) in assay [4] turned out to be 20 µM.
For orientation: inhibition means how much of the control response was suppressed. As to `COc1c(O)c(C)c(C/C=C(\C)CC/C=C(\C)CC/C=C(\C)CC/C=C(\C)CC/C=C(\C)CC/C=C(\C)CC/C=C(\C)CC/C=C(\C)CC/C=C(\C)CCC=C(C)C)c(O)c1OC`, the inhibition in assay [5] was greater than 90%.
For the compound `Oc1ccc(Nc2nc(-c3ccc(Cl)cc3)cs2)cc1`, the Ki in assay [6] is 0.3 µM.
Regarding `CCCCCCCCCCCCOS(=O)(=O)O[C@@H]1[C@H](O)[C@H](OP(=O)(O)O)[C@@H](O)[C@H](OP(=O)(O)O)[C@H]1O`, the IC50 in assay [7] came to 0.9 µM. Further, the Ki in assay [8] was 0.42 µM.
Regarding `CCCCCCCCCCCCCC1=C([C@@H](O)[C@H](CO)NC(=O)CCCCCCC)C1`, the midpoint of inhibition in [9], the IC50, lay at 0.052 µM. For the same compound, the results for the Ki in [10] and in [11] were 0.022 µM and 6 µM, respectively.
Turning to `CN1c2ccc(OC(=O)Nc3ccncc3)cc2[C@]2(C)CCO[C@H]12`, it took 7 µM to reach half-maximal inhibition at Acetylcholinesterase (IC50).
In [12], `O=C(/C=C/c1ccc(/C=C/C(=O)Nc2ccc(C3=NCCN3)cc2)cc1)Nc1ccc(C2=NCCN2)cc1` displayed a half-maximal inhibitory concentration (IC50) of 1 µM.
Consider `CCCCCCCCCCCCC/C=C/[C@@H](OCc1cccc(-c2ccccn2)n1)[C@H](CO)NC(=O)CCCCC`, for which the inhibition in assay [13] stood at 20%.
For `CCCCCCCCCCCCCCCC(=O)N[C@H](CC(F)(F)P(=O)(O)O)[C@@H](O)c1ccccc1`, the Ki in assay [14] came out at 1.6 µM. In assay [15], this compound returned an IC50 of 3.3 µM.
As to `CCCCCCCC(=O)OC[C@H](COP(=O)(O)O[C@@H]1[C@H](O)[C@H](OP(=O)(O)O)[C@@H](O)[C@H](OP(=O)(O)O)[C@H]1O)OC(=O)CCCCCCC`, the inhibition in [16] is greater than 90%. In [7], this compound showed an IC50 of 0.93 µM. Further, in assay [17], the Ki was 0.53 µM.
In the case of `CCCCCCCCCCCCCSC[C@@H](O)[C@H](CO)NC(=O)CCCCCCC`, the IC50 in [18] worked out at 8.2 µM.
As for `CCCC[C@@H](C)[C@@H](OC(=O)C[C@@H](CC(=O)O)C(=O)O)[C@H](C[C@@H](C)C[C@H](O)CCCC[C@@H](O)C[C@H](O)[C@H](C)N)OC(=O)C[C@@H](CC(=O)O)C(=O)O`, in [19], the IC50 amounted to 0.1 µM.
Regarding `C[C@@](N)(CO)CCc1ccc(OCc2ccc(Cl)c(Cl)c2)cc1`, the IC50 against Ceramide synthase 4, at Ceramide synthase 6, on Ceramide synthase 5, on Ceramide synthase 2 [20] and against Ceramide synthase 2 [21] was 7 µM in each case.
The compound `O=c1[nH]c(=S)[nH]c(-c2ccccc2)c1Cc1c(O)ccc2ccccc12` [CAMBINOL] showed an IC50 in assay [22] of 5 µM.
Regarding `CN1c2ccc(OC(=O)Nc3ccccc3)nc2[C@]2(C)CCO[C@H]12`, the inhibition in assay [23] came to 60%.
`COc1cc([C@H]2Oc3cc(O)cc(O)c3C[C@H]2OC(=O)c2cc(O)c(O)c(O)c2)cc(O)c1O`: in assay [24], the concentration for half-maximal inhibition (IC50) is 1.7 µM.
For `Nc1c(Br)cc(Br)cc1CN[C@H]1CC[C@H](O)CC1` [AMBROXOL], the IC50 in assay [25] is greater than 1100 µM; in assay [26], 8.1 µM; in assay [27], 31 µM.
For `N=C(N)N/N=C/c1ccc(Oc2cccc(OCc3ccccc3)c2)cc1`, the inhibition in [28] amounted to 80%.
At Ceramide synthase 2 [29], `CCCCCCCCc1ccc(CCC(N)(CO)CO)cc1` [FINGOLIMOD] gave a Ki of 2.15 µM. The compound further displayed an IC50 against Ceramide synthase 2 [30] of 6.4 µM.

The record behind these values is ChEMBL document CHEMBL5226284, “Small Molecule Inhibitors Targeting Biosynthesis of Ceramide, the Central Hub of the Sphingolipid Network” (J Med Chem, 2021).
